Among the data in ChEMBL document CHEMBL1201862, “PubChem BioAssay data set” (2004) are IC50 values, retold here.

The source made the active and inactive calls. Cut-off read from the data, not from the text of the source: actives have a measured IC50 and inactives only a lower limit.

By IC50 is commonly meant the concentration at which inhibition is half-maximal.

Chain of Envelope glycoprotein gp160 (Q6QLK5 whole entry, the tested form may be a part): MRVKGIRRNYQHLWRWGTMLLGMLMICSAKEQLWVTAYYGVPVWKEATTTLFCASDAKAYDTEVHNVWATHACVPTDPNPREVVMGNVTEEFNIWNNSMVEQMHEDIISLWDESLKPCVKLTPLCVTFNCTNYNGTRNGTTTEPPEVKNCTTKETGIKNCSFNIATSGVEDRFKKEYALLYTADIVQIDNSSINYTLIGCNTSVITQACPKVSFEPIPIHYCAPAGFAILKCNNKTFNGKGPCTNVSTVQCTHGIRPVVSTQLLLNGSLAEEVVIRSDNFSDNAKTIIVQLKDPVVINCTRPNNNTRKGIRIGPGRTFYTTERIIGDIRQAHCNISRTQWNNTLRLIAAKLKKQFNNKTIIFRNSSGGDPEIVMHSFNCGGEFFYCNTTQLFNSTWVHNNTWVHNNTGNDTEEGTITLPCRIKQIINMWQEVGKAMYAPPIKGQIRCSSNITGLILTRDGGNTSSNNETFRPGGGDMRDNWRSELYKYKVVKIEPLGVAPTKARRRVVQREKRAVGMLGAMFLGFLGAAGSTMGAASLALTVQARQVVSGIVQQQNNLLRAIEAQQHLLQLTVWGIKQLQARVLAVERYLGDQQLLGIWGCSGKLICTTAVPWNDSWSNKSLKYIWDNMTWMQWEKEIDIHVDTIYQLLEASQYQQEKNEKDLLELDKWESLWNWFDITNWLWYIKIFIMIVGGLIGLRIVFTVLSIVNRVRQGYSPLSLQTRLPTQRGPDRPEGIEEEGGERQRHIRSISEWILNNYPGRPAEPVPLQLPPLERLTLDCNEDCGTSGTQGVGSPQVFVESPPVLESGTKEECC

This assay has as its target Envelope glycoprotein gp160 (Human immunodeficiency virus 1, UniProt Q6QLK5). Kind of assay: inhibitors of HIV fusion peptide binding, primary screen, biochemical, uHTS, fluorescence dequenching (AID 1986).
Consider `COc1cc(/C=N/NS(=O)(=O)c2ccc3ccccc3c2)ccc1OCc1ccc(C(=O)O)cc1`, for which the IC50 was 27 µM (active). In the case of `O=C(O)c1[nH]c2ccccc2c1C(c1cc(Cl)cc([N+](=O)[O-])c1O)c1c(C(=O)O)[nH]c2ccccc12`, the half-maximal inhibitory concentration (IC50) was 2.55 µM (active).

Consider `O=C(O)C1Nc2c(cccc2C(F)(F)F)C2C=CCC12` (stereo not given), for which the half-inhibitory concentration (IC50) is 12.7 µM (active). Consider `COc1cc(/C=N/NC(=O)C(Cc2c[nH]c3ccccc23)NC(=O)OCc2ccccc2)cc([N+](=O)[O-])c1O` (stereo not given), for which the IC50 was 17.2 µM (active). The value for `CCC(Sc1nc2ccsc2c(=O)n1Cc1ccc(C(=O)O)cc1)C(=O)Nc1ccc(C)c(Cl)c1` (stereo not given) was 20 µM (active).
